What was measured:
[1] = molecular target: T1, CB2 (Homo sapiens, UniProt P34972); assay: Receptor binding profile of VSN16R
T1 construct: purchased Cerep; Chantest; DiscoveRx; Multispan; MDS Pharma Services

[2] = molecular target: T2, 5-HT5A (Homo sapiens, UniProt P47898); assay: Receptor binding profile of VSN16R; conditions: 10µM VSN16R
T2 construct: purchased Cerep; Chantest; DiscoveRx; Multispan; MDS Pharma Services

[3] = molecular target: CYP450 3A7 (Homo sapiens, UniProt P24462)
[4] = tested on: BZD; assay: Receptor binding profile of VSN16R; set-up: species or system human; conditions: 10µM VSN16R
[5] = molecular target: T3, 5-HT6 (Homo sapiens, UniProt P50406); assay: Receptor binding profile of VSN16R; conditions: 10µM VSN16R
T3 construct: purchased Cerep; Chantest; DiscoveRx; Multispan; MDS Pharma Services
T3 sequence (P50406 whole entry): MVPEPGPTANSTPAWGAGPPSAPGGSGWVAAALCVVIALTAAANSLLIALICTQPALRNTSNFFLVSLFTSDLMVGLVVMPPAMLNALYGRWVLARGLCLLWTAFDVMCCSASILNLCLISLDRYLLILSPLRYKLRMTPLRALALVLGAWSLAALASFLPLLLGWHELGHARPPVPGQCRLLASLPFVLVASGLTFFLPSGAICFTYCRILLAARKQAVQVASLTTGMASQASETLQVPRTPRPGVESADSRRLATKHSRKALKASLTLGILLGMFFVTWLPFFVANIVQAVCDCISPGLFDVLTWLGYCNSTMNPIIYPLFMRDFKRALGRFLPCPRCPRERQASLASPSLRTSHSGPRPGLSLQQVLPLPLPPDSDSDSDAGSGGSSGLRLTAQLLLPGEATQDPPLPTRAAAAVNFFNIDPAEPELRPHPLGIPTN

[6] = molecular target: T4, NK3 (Homo sapiens, UniProt P29371); assay: Receptor binding profile of VSN16R; conditions: 10µM VSN16R
T4 construct: purchased Cerep; Chantest; DiscoveRx; Multispan; MDS Pharma Services
T4 sequence (P29371 whole entry): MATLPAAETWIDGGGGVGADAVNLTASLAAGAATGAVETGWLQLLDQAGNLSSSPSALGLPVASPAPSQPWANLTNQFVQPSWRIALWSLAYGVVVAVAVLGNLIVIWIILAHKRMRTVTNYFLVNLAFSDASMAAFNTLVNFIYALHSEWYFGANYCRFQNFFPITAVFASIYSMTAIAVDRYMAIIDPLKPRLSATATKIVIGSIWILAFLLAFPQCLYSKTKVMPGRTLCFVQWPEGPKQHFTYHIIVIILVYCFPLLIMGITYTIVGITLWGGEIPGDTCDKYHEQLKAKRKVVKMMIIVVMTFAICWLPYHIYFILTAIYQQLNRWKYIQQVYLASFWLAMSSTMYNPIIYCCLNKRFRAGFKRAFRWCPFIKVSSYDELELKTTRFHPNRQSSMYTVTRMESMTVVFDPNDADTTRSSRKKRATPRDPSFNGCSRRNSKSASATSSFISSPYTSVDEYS

[7] = molecular target: CYP450 2A6 (Homo sapiens, UniProt P11509); assay: CYP450 inhibition of substrate binding
Sequence of CYP450 2A6 (P11509 whole entry): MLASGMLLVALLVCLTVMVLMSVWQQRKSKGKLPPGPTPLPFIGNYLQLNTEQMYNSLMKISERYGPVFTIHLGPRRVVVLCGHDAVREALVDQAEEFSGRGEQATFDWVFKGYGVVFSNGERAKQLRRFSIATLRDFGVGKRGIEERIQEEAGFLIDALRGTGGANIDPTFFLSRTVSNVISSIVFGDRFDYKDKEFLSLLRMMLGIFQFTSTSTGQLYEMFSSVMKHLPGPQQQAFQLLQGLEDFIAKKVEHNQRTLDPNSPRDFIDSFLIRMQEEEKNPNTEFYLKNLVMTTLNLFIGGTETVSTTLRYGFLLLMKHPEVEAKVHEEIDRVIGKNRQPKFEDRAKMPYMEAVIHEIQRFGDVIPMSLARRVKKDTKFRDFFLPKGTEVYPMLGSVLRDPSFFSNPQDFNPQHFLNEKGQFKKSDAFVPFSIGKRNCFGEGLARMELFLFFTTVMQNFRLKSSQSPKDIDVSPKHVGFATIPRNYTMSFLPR
Text: IC50 Inhibition of substrate binding
Inhibition of binding of either 3-cyano-7-ethoxycoumarin, dibenzylfluorescein or 7-benzyoxy-4-
(trifluoromethyl) coumarin in human enzyme transfected BTI NN-5B1-4 cells or Sf9 insect cells or
inhibition of dextromethorphan substrate to CYP450 2D6 in liver microsomes.

[8] = Stability in pooled mouse liver microsomes; format: in vitro ADME; conditions: pooled mouse liver microsomes, 37°C, upper limit 100 min, read-out: t ½ in liver microsomes
Experimental: The stability of compounds when subjected to hepatic and plasma degradation was assessed in vitro by Inpharmatica, Cambridge, UK. Compounds (1 μM) were incubated with either pooled mouse liver microsomes (0.1 mg protein mL^−1) or pooled mouse plasma at 37°C for 0, 5, 10, 20 and 40 min before termination with acetonitrile containing warfarin as an analytical internal standard. Samples were centrifuged, and the resultant supernatant analysed for parent compound. The mass responses at baseline were taken as the 100% reference values against which the disappearance of the compound was measured. The natural log of the % remaining values was used to generate linear plots of disappearance of the compounds. Half‐life values were calculated from the slope of these plots. Hepatocyte metabolism was assessed by Cyprotex, Macclesfield, and 10 μM VSN16R was incubated with primary mouse, rat, monkey (Macaque) and human hepatocytes for 1 h, and the presence of metabolites was assessed using liquid […] mass spectroscopy. The stability of VSN16R was assessed in vivo by Inpharmatica, Cyprotex and Charles Rivers, Cambridge. Blood (plasma) samples were obtained prior to and 5 min to 24 h after drug administration of 2–5 mg·kg^−1 i.v. or 5 mg·kg^−1 p.o. VSN16R into outbred mice and rats (n = 3 per time point). […] Data are expressed as mean ± SEM. […]

[9] = molecular target: T5, EDG6 (Homo sapiens, UniProt O95977); assay: Receptor binding profile of VSN16R; conditions: 10µM VSN16R
T5 construct: purchased Cerep; Chantest; DiscoveRx; Multispan; MDS Pharma Services
T5 sequence (O95977 whole entry): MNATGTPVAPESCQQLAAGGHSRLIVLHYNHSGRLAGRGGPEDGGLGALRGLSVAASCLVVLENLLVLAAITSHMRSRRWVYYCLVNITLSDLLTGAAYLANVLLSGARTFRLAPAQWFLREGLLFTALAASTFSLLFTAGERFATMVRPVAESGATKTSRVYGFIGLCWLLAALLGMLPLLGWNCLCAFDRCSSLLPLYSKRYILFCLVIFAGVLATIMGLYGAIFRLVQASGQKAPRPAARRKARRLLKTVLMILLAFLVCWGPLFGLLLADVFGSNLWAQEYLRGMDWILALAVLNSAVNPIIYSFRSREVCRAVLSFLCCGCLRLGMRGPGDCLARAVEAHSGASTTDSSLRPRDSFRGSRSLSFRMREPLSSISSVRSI

[10] = tested on: rats; assay: Irwin test; format: in vivo, rat
[11] = tested on: mice; assay: Visible sedation, behaviour and tolerability in mice
[12] = molecular target: T6, EDG8 (Homo sapiens, UniProt Q9H228); assay: Receptor binding profile of VSN16R; conditions: 10µM VSN16R
T6 construct: purchased Cerep; Chantest; DiscoveRx; Multispan; MDS Pharma Services
T6 sequence (Q9H228 whole entry): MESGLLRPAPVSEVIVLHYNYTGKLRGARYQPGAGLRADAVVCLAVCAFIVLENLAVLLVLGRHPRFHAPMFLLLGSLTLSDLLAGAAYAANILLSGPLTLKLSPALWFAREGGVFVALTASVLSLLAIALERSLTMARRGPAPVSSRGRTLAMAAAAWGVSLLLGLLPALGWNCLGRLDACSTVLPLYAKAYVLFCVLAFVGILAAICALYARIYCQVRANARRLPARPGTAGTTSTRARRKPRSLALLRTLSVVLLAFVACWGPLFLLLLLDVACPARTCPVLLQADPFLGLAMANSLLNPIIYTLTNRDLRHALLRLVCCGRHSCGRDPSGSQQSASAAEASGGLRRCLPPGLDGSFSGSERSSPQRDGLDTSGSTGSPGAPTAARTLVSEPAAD

[13] = tested on: mouse vas deferens; assay: Electrically‐evoked contraction of the mouse vas deferens; format: cell-based; conditions: Mus musculus, read-out: EC50, inhibition of electrically‐evoked contraction
Experimental: Vasa deferentia were obtained from outbred MF‐1 mice and mounted vertically in a 4 mL organ bath at an initial tension of 0.5 g. The baths contained Mg^2+‐free Krebs solution (NaCl 118.2 mM, KCl 4.75 mM, KH2PO4 1.19 mM, NaHCO3 25.0 mM, glucose 11.0 mM and CaCl2·6H2O 2.54 mM), which was kept at 35–36°C and bubbled with 95% O2 and 5% CO2. […] Contractions were monitored by a computer using a data recording and analysis system as described previously (Ross et al., 2001). After placement in an organ bath, each tissue was subjected to a stimulation‐free period of 10 min and then stimulated for 10 min. Tissues were then subjected to alternate periods of stimulation (5 min) and rest (10 min) until consistent twitch amplitudes were obtained. This equilibration procedure was followed by a stimulation‐free period of 25 min. Tissues were then stimulated for 5 min after which the first agonist addition was made and stimulation continued until the end of the experiment.

[14] = 1 g·kg^−1 p.o. daily for 5 days

T1 sequence (P34972 whole entry): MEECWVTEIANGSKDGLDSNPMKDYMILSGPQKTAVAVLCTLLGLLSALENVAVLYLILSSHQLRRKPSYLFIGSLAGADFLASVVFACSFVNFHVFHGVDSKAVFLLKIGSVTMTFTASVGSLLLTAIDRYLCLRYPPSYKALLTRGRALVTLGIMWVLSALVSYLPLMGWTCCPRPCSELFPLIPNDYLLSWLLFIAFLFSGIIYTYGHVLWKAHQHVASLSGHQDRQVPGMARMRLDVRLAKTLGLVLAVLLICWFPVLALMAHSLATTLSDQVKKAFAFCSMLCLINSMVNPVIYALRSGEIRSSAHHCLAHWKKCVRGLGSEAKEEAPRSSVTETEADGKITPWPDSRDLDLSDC
Sequence of CYP450 3A7 (P24462 whole entry): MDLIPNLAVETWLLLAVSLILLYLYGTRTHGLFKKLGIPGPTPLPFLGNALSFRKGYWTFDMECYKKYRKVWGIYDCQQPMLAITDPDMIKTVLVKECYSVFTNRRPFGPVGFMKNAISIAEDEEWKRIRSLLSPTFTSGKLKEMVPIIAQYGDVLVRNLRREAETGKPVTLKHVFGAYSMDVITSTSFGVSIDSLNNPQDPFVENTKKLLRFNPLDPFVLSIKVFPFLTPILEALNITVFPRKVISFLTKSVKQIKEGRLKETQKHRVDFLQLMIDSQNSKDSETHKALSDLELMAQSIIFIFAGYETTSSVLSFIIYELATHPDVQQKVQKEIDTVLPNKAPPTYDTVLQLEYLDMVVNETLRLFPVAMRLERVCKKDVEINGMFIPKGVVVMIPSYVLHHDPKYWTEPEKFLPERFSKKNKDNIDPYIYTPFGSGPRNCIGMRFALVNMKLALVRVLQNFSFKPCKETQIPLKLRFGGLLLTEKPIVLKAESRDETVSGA
T2 sequence (P47898 whole entry): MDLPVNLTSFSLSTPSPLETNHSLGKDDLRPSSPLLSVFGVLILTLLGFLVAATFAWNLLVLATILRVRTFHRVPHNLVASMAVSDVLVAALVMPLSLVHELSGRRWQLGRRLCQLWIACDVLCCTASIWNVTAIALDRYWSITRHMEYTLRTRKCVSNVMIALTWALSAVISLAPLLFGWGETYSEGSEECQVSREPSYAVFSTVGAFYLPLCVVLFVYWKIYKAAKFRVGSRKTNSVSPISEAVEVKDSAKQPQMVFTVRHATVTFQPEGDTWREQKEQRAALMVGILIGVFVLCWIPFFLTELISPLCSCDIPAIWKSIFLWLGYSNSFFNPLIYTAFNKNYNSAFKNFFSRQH

SMILES: C[C@H](CO)NC(=O)c1cccc(/C=C\CCCC(=O)N(C)C)c1 [VSN16R]
- Activity ([1]; 10µM VSN16R): Negligible Activity
- Binding to CB2 receptors ([1]; tested to 10 μM): did not bind
- Activity [2]: Negligible Activity
- IC50 [3]: > 10 µM
- Activity [4]: Negligible Activity
- Activity [5]: Negligible Activity
- Activity [6]: Negligible Activity
- IC50 [7]: > 10 µM
- half-life at 1 μM [8]: > 1.67 h
- Activity [9]: Negligible Activity
- Irwin test: Autonomic profile ([10]; 120mg/kg p.o. in water): Unchanged
- Irwin test: Behavioural Profile ([10]; 120mg/kg p.o. in water): Unchanged
- Irwin test: Neurological profile ([10]; 120mg/kg p.o. in water): Unchanged
- Adverse behavioural responses in Irwin tests ([10]; 120 mg·kg^−1 p.o.): did not display any adverse behavioural responses
- Overt behavioural effects or toxicity [11, 14]: failed to show any overt behavioural effects or toxicity
- Weight loss [11, 14]: no drug‐induced weight loss
- Tolerated dose ([11]; p.o., mice): 1000 mg/kg
- Visible evidence of sedation ([11]; up to 30 mg·kg^−1 i.v. in PBS): failed to show any visible evidence of sedation
- Activity [12]: Negligible Activity
- EC50 [13]: 0.01 µM
